Measurements reported in patent US20060173069A1, “Therapeutic agent for hyperpotassemia and bone disease” (RIKEN, priority 2003, published 2006).
Positions of bridges follow the written chain, without caps; N, C: chain ends. No end group written: not given here.

Experiments:
mature osteoclasts = experiment: Cell-death (apoptosis) inducing activity on mature osteoclasts, number of TRAP-stained multinuclear cells; type: cell-based, mouse; conditions: Mus musculus, Osteoclast; RAW264-derived mature osteoclasts, 24 hours incubation, TRAP staining; read-out: ED50 level of cell-death inducing activity to mature osteoclasts, Number of cells
Method: Using 29 different reveromycin A derivatives synthesized as described above, the cell-death inducing activities on the mature osteoclasts and undifferentiated macrophage-like cells derived from a mouse (RAW264 cells) were examined, respectively. The RAW264 cells, a mouse-macrophage cell line, were suspended in a 10% FBS-αMEM (manufactured by Gibco BRL Co., Ltd.) and then 12,000 cells/100 μl were inoculated in a 96-well plate. After 1-hour incubation, 100 μl of a culture medium containing RANKL ([…]) and PD98059 (40 μM) were added (final concentration: RANKL […] and PD98059 20 μM) and then incubated for 4 days to allow the differentiation of the cells to mature osteoclasts (J. Biol. Chem. Vol. 277, pp. 47366-47372 (2002)). Furthermore, on the second day of the culture, the half of the culture medium was replaced with new one. From each well of the plate where the cells were differentiated to the mature osteoclasts, 100 μl/well of the culture medium was removed. […] The apoptosis inducing activity was confirmed by the observation of agglutination of nuclei stained with 10 μM Hoechst 33258 for 10-minututes.

[1] = system: undifferentiated RAW264 cells; experiment: Cell-death inducing activity on undifferentiated RAW264 cells, MTT method; type: cell-based, mouse; conditions: Mus musculus, RAW264.7; 24 hours incubation, MTT; read-out: ED50 level of cell-death inducing activity to undifferentiated RAW264 cells, MTT
Method: The cell-death inducing activities to the undifferentiated RAW264 cells were investigated by the MTT method (J. Immunol. Methods, Vol. 65, pp 55-63 (1983). The RAW 264 cells were plated on a 96-well plate at a density of 40,000 cells/100 μl and then incubated for 24 hours. After the 24-hour incubation, 50 μl of a culture medium containing a three-fold concentration of the drug was added and then incubated for 24 hours to investigate the cell-death inducing activity. Two hours before the measurement of the cell-death inducing activity, 15 μl of 0.5% MTT-PBS (phosphate buffer saline) was added and incubated. After that, the residue from which the culture solution was removed was dissolved in 100 μl of DMSO (dimethyl sulfoxide) and the absorbance at 570 nm (a reference wave length of 630 nm) was measured, followed by calculating the ED50 level of the cell-death inducing activity.

[2] = system: bone resorption due to parathyroid hormone (PTH); experiment: Serum calcium in TPTX rats with hypercalcemia by continuous PTH infusion; type: in vivo, SD rats; conditions: comparison of calcitonin with reveromycin A derivatives
Method: The bone resorption inhibitory effects of the reveromycin A derivatives were examined by measuring the level of serum calcium released in the blood by the action of bone resorption. SD rats were subjected to an operation of extracting the thyroid glands and the parathyroid glands (TPTX). Next day, a decrease in serum calcium was confirmed and then the continuous infusion of the parathyroid hormone (PTH) was carried out, thereby creating rats each having hypercalcemia by accelerating the bone resorption.
At 12 hours from the initiation of PTH injection, the reveromycin A derivatives ([…]) or a sodium salt thereof ([…]) were administered and the level of serum calcium was then measured in time-course for 24 hours.

| Compound | EC50 (mature osteoclasts) [µM] | CC50 [1] [µM] | duration of inhibitory action on bone resorption [2] |
| --- | --- | --- | --- |
| CCCC[C@@]1(OC(=O)CCC(=O)O)CC[C@]2(CC[C@H](C)[C@@H](C/C=C(C)/C=C/C(O)c3ccccc3)O2)O[C@H]1/C=C/C(C)=C/C(=O)OC (some centres unmarked) [Compound 24] | > 15 | > 15 |  |
| CCCC[C@@]1(OC(=O)CCC(=O)OC)CC[C@]2(CC[C@H](C)[C@@H](C/C=C(C)/C=C/C(C)O)O2)O[C@H]1/C=C/C(C)=C/C(=O)OC (some centres unmarked) [Compound 19] | 36 | > 50 |  |
| CCCC[C@@]1(OC(=O)CCC(=O)O)CC[C@]2(CC[C@H](C)[C@@H](C/C=C(C)/C=C/[C@H](O)[C@@H](C)/C=C/C(=O)OC)O2)O[C@H]1/C=C/C(C)=C/C(=O)O [Compound 15] | 5.8 | 25 |  |
| CCCC[C@@]1(OC(=O)CCC(=O)O)CC[C@]2(CC[C@H](C)[C@@H](C/C=C(C)/C=C/[C@@H](C)O)O2)O[C@H]1/C=C/C(C)=C/C(=O)OC [Compound 25] | > 17 | > 17 |  |
| CCCC[C@@]1(OC(=O)CCC(=O)O)CC[C@]2(CC[C@H](C)[C@@H](C/C=C(\C)COC(=O)CCC(=O)O)O2)O[C@H]1/C=C/C(C)=C/C(=O)O [Compound 5] | > 47 | > 157 |  |
| CCCC[C@]1([C@@H](O)/C=C/C(C)=C/C(=O)O)CC[C@]2(CC[C@H](C)[C@@H](C/C=C(C)/C=C/[C@H](O)[C@@H](C)/C=C/C(=O)O)O2)O1 [Compound 10] | > 54 | > 178 |  |
| CCCC[C@@]1(OC(=O)CCC(=O)O)CC[C@]2(CC[C@H](C)[C@@H](C/C=C(C)/C=C/[C@H](O)[C@@H](C)/C=C/C(=O)O)O2)O[C@H]1/C=C/C(C)=C/C(=O)OC [Compound 22] | 9.3 | 53 |  |
| CCCC[C@@]1(OC(=O)CCC(=O)O)CC[C@]2(CC[C@H](C)[C@@H](C/C=C(C)/C=C/[C@H](O)[C@@H](C)/C=C/C(=O)OC)O2)O[C@H]1/C=C/C(C)=C/C(=O)OC [Compound 13] | 2.5 | 7.6 |  |
| CCCC[C@@]1(OC)CC[C@]2(CC[C@H](C)[C@@H](C/C=C/C(C)=C/C(=O)O)O2)O[C@H]1/C=C/C(C)=C/C(=O)O [Compound 17] | > 61 |  |  |
| CCCC[C@@]1(OC(=O)CCC(=O)O)CC[C@]2(CC[C@H](C)[C@@H](C/C=C(C)/C=C/C(C)O)O2)O[C@H]1/C=C/C(C)=C/C(=O)OC (some centres unmarked) [Compound 23] | > 17 | > 17 |  |
| CCCC[C@@]1(OC(=O)CCC(=O)O)CC[C@]2(CC[C@H](C)[C@@H](C/C=C(\C)CO)O2)O[C@H]1/C=C/C(C)=C/C(=O)O [Compound 4] | > 5.6 | > 5.6 |  |
| CCCC[C@@]1(O)CC[C@]2(CC[C@H](C)[C@@H](C/C=C(C)/C=C/[C@H](OC)[C@@H](C)/C=C/C(=O)OC)O2)O[C@H]1/C=C/C(C)=C/C(=O)OC (mixture of isomers) [Compound 7] | > 51 | > 169 |  |
| CCCC[C@@]1(OC(=O)CCC(=O)OC)CC[C@]2(CC[C@H](C)[C@@H](C/C=C(C)/C=C/[C@H](O)[C@@H](C)/C=C/C(=O)O)O2)O[C@H]1/C=C/C(C)=C/C(=O)O [Compound 21] | 7.3 | 21 |  |
| calcitonin (CGNLSTCMLGTYTQDFNKFHTFPQTAIGVGAP-NH2; disulfide 1-7; ends not checked; UniProt P01258 85-116, looked up) [reference compound] |  |  | shorter inhibitory action on bone resorption |
| CCCC[C@@]1(OC(=O)CCC(=O)O)CC[C@]2(CC[C@H](C)[C@@H](C/C=C(C)/C=C/[C@H](O)[C@@H](C)/C=C/C(=O)O)O2)O[C@H]1/C=C/C(C)=C/C(=O)O [Reveromycin A, reveromycin A, reference compound] | 0.18 | 24 |  |
| CCCC[C@]1(C(/C=C/C(C)=C/C(=O)O)OC(=O)CCC(=O)O)CC[C@]2(CC[C@H](C)[C@@H](C/C=C(C)/C=C/[C@H](O)[C@@H](C)/C=C/C(=O)O)O2)O1 (some centres unmarked) [Compound 1] | > 45 | 132 |  |
| CCCC[C@@]1(OC(=O)CCC(=O)O)CC[C@]2(CC[C@H](C)[C@@H](CCO)O2)O[C@H]1/C=C/C(C)=C/C(=O)O [Compound 3] | > 6 | > 6 |  |
| CCCC[C@@]1(OC(=O)CCC(=O)OC)CC[C@]2(CC[C@H](C)[C@@H](C/C=C(C)/C=C/[C@H](O[Si](C)(C)C(C)(C)C)[C@@H](C)/C=C/C(=O)OC)O2)O[C@H]1/C=C/C(C)=C/C(=O)O [Compound 12] | 0.6 | 1 |  |
| CCCC[C@@]1(OC(=O)CCC(=O)OC)CC[C@]2(CC[C@H](C)[C@@H](C/C=C(C)/C=C/[C@H](O)[C@@H](C)/C=C/C(=O)O)O2)O[C@H]1/C=C/C(C)=C/C(=O)OC [Compound 14] | 3.3 | 25 |  |
| CCCC[C@@]1(OC)CC[C@]2(CC[C@H](C)[C@@H](C/C=C(C)/C=C/[C@H](O)[C@@H](C)/C=C/C(=O)O)O2)O[C@H]1/C=C/C(C)=C/C(=O)O [Compound 1390-II] | > 5.2 |  |  |
| CCCC[C@]1(C(/C=C/C(C)=C/C(=O)O)OC)CC[C@]2(CC[C@H](C)[C@@H](C/C=C(C)/C=C/[C@H](O)[C@@H](C)/C=C/C(=O)O)O2)O1 (some centres unmarked) [Compound 1392-II] | > 52 | > 174 |  |
| CCCC[C@@]1(OC(=O)CCC(=O)O)CC[C@]2(CC[C@H](C)[C@@H](C/C=C(C)/C=C/[C@H](OC)[C@@H](C)/C=C/C(=O)O)O2)O[C@H]1/C=C/C(C)=C/C(=O)O [Compound 26] | > 44 | > 148 |  |
| CCCC[C@@]1(O)CC[C@]2(CC[C@H](C)[C@@H](C/C=C(C)/C=C/[C@H](O)[C@@H](C)/C=C/C(=O)O)O2)O[C@H]1/C=C/C(C)=C/C(=O)O (mixture of isomers) [Compound 11] | 41 | > 178 |  |
| CCCC[C@@]1(OC(=O)CCC(=O)OC)CC[C@]2(CC[C@H](C)[C@@H](C/C=C(C)/C=C/C(O)c3ccccc3)O2)O[C@H]1/C=C/C(C)=C/C(=O)OC (some centres unmarked) [Compound 20] | > 45 | > 150 |  |
| CCCC[C@@]1(OC(=O)CCC(=O)OC)CC[C@]2(CC[C@H](C)[C@@H](C/C=C(C)/C=C/[C@H](O)[C@@H](C)/C=C/C(=O)OC)O2)O[C@H]1/C=C/C(C)=C/C(=O)OC [Compound 16] | 26 | > 142 |  |
